Measurements from patent US20130115257A1, “COMPOSITIONS AND METHODS FOR REMOVAL OR DESTRUCTION OF AMYLOID FIBRIL OR AMYLOID ADHESIN COMPRISING AGGREGATES” (KATHOLIEKE UNIVERSITEIT LEUVEN, priority 2010, published 2013).
“Also recorded” adds a separate entry of the source. Structures can show the parent of a compound that is named as a salt.

Key:
[1] = system: amyloid fibrils from insulin; experiment: Atomic force microscopy of insulin amyloid fibrils incubated with Congo red; format: binding; conditions: 140 μmol/L CR in water, 2 hours, fibrils on silicon surface
Protocol: (§1) Amyloid fibrils from the insulin hormone were obtained by dissolving insulin (3.5 mmol/L) in water adjusted to pH 2 with HCl and heated to 70° C. for 2 hours. Samples were diluted to a concentration of 7 μmol/L at room temperature and transferred to a piranha (4:1, H2SO4:H2O2) cleaned naturally oxidized silicon wafer. After 15 minutes of incubation the silicon surface was rinsed with water. The amyloid fibers on the silicon surface are then incubated with a 140 μmol/L solution of CR in water during 2 hours and successively rinsed with water.

insulin fibrils = experiment: Fluorescence microscopy of dye-amyloid fibril complexes; format: binding; conditions: insulin fibrils incubated with CR
Source text: The dye-amyloid fibril complexes were also imaged with fluorescence microscopy, as CR is a fluorophore. […] Bright contrast in the fluorescence images corresponds to the presence of the fluorophore on the insulin fibrils, which themselves are not fluorescent.

[2] = system: Congo Red-amyloid fibril complex (insulin fibrils); experiment: AFM of Congo Red-amyloid fibril complex after incubation with metal ions or colloids (fibril disintegration); conditions: CR-stained insulin fibrils, 5 mmol/L silver ions, 15 minutes; for disintegration of the dye-amyloid fibers (AFM image): rinsed and dried
Protocol: as §1
The predominant particles are soluble dimers and higher order aggregates with the hydrophobic regions sequestered from the aqueous environment (D. Watson et al., Neurological Research 27, 869-881 (2005)). The soluble oligomeric amyloid-beta peptides are the principal constituent of amyloid deposits such as plaques and intraneuronal tangles.
The positively charged metal ions bind to the negatively charged sulfonate groups of the dye and interfere with the electrostatic bond between the negatively charged group of the CR molecule and the basic amino acid side chain of the fibril. This way the dye-peptide bond is disrupted at the monomer level, which causes the disintegration of the fibril. Our in vitro study points out that neurodegenerative disorders can be treated by negatively charged molecules, like CR which intercalate between the amyloid β-strands and induce a destabilization of the CR-fibril complex when metallic ions such as silver ions are introduced.

[3] = water; organic solvents such as ethanol; cited from earlier work

Row | Compound | average cross section of the dye-amyloid fiber (AFM) [1] | presence of the fluorophore on the insulin fibrils (fluorescence images) (insulin fibrils) | disintegration of the dye-amyloid fibers (AFM image) [2] | solubility [3] | heights of the particles left after disintegration (AFM) [2]
1 | Nc1c(/N=N/c2ccc(-c3ccc(/N=N/c4cc(S(=O)(=O)O)c5ccccc5c4N)cc3)cc2)cc(S(=O)(=O)O)c2ccccc12 [Congo red, sodium salt of benzidinediazo-bis-1-naphthylamine-4-sulfonic acid] | same dimension as in the absence of CR | bound or intercalated evenly in the insulin fibrils | total disintegration of the amyloid fibrils into peptide monomers | water soluble; also recorded: solubility is better in organic solvents such as ethanol | –
2 | silver ions | – | – | total disintegration | – | 1-2 nm
